Laboratory results as given in ChEMBL document CHEMBL5230110, “FabI (enoyl acyl carrier protein reductase) - A potential broad spectrum therapeutic target and its inhibitors” (Eur J Med Chem, 2020).

Molecular target: Enoyl-[acyl-carrier-protein] reductase [NADH] (Mycobacterium tuberculosis, UniProt P9WGR1, S94A)

`Oc1cc2ccc1Oc1ccc(cc1)CCc1ccc(c(O)c1)Oc1ccc(cc1)CC2` gave an IC50 of 4.7 µM.
